Results reported in patent US6114517A, “Methods of modulating tumor necrosis factor α-induced expression of cell adhesion molecules” (Isis Pharmaceuticals Inc., priority 1998, dated 2000).

Key:
Format in all cases: cell-based, human
[1] = tested on: Ha-ras mRNA; experiment: Ha-ras mRNA levels by Northern blot in HMVEC
Description: Human dermal microvascular cells (HMVEC-d; Clonetics, San Diego, Calif.) were cultivated in endothelial basal media (EBM, Clonetics) supplemented with 10% fetal bovine serum (HyClone, Logan, Utah). Cells were grown in 100 mm petri dishes until 70-80% confluent, then washed with PBS and OPTI-MEM (Life Technologies, Inc., Gaithersburg, Md.). The cells were then incubated in the presence of OPTI-MEM and […] LIPOFECTIN (a 1:1 (w/w) liposome formulation of the cationic lipid N-[1-(2,3-dioleyloxy)propyl]-n,n,n-trimethylammonium chloride (DOTMA), and dioleoyl phosphotidylethanolamine (DOPE) in membrane filtered water (Life Technologies, Gaithersburg, Md.), per 100 nM of oligonucleotide followed by addition of oligonucleotide at the appropriate concentrations.
For determination of mRNA levels by Northern blot, total RNA was prepared from cells by the guanidinium isothiocyanate procedure or by the Qiagen RNAEASY method (Qiagen, Santa Clarita, Calif.) at the indicated times after initiation of oligonucleotide treatment. Northern blot analysis was performed as described in Current Protocols in Molecular Biology (Ausubel, F. M., et al., (eds), 1987, Greene Publishing Assoc. and Wiley Interscience, New York). A glyceraldehyde 3-phosphate dehydrogenase (G3PDH) probe was purchased from Clontech (Palo Alto, Calif., Catalog Number 9805-1). RNA was quantified and normalized to G3PDH mRNA levels using a Molecular Dynamic PHOSPHORIMAGER (Sunnyvale, Calif.).
ISIS 15168 (SEQ ID NO. 4) is a 2'-O-methoxyethyl mixed backbone chimeric antisense oligonucleotide designed to hybridize with sequences contained within the human Ha-ras mRNA. To determine the effect of ISIS 15168 (SEQ ID NO. 4) on Ha-ras expression in endothelial cells, HMVEC were treated, as described in Example 2, with oligonucleotide and northern blotting was used to measure Ha-ras mRNA levels. A Ha-ras probe was generated from the plasmid, pbc-N1 (American Type Culture Collection, Manassas, Va.; catalog #41001), following the supplied instructions.

[2] = tested on: Ki-ras protein; experiment: Ki-ras protein levels by Western blot in HMVEC; conditions: same blot stripped and blotted with Ki-ras-specific antibody
Description: (§1) For determination of protein levels by Western blot, cellular extracts were prepared using […] of RIPA extraction buffer per 100-mm dish. The protein concentration was quantified by Bradford assay using the BioRad kit (BioRad, Hercules, Calif.). Equal amounts of protein were loaded on 10% or 12% SDS-PAGE mini-gel (Novex, San Diego, Calif.). Once transferred to PVDF membranes (Millipore, Bedford, Mass.), the membranes were then treated for a minimum of 2 hours with specific primary antibody followed by incubation with secondary antibody conjugated to HRP. The results were visualized by Enhanced Chemiluminescent (ECL) detection (New England BioLab, Beverly, Mass.). In some experiments, the blots were stripped in stripping buffer (2% SDS, 12.5 mM Tris, pH 6.8) for 30 minutes at 50° C. After extensive washing, the blots were blocked and blotted with different primary antibody.
To examine the effect of ISIS 15168 (SEQ ID NO. 4) on Ha-ras protein levels, total ras protein was immunoprecipitated using a pan-ras monoclonal antibody (Oncogene Science, Cambridge, Mass.). The precipitated proteins were analyzed by SDS-PAGE, and Ha-ras protein levels were determined by western blot using a monoclonal antibody specific for Ha-ras (Oncogene Science, Cambridge, Mass.). […] The kinetics of Ha-ras reduction was slower than that of c-raf. […]

[3] = tested on: Ha-ras protein; experiment: Ha-ras protein levels, immunoprecipitation and Western blot in HMVEC; conditions: for Ha-ras protein expression: 48 hours following treatment
Description: as §1
To examine the effect of ISIS 15168 (SEQ ID NO. 4) on Ha-ras protein levels, total ras protein was immunoprecipitated using a pan-ras monoclonal antibody (Oncogene Science, Cambridge, Mass.). The precipitated proteins were analyzed by SDS-PAGE, and Ha-ras protein levels were determined by western blot using a monoclonal antibody specific for Ha-ras (Oncogene Science, Cambridge, Mass.). […] The kinetics of Ha-ras reduction was slower than that of c-raf. The control oligonucleotide, ISIS 17552 (SEQ ID NO. 5), had no effect on Ha-ras protein level. The same blot was stripped and blotted a second time with a Ki-ras-specific antibody (Oncogene Science, Cambridge, Mass.).

[4] = tested on: p38 MAPK; experiment: TNF-α-stimulated p38 MAPK activity, in vitro kinase assay on extracts of treated cells; conditions: 48 hours recovery, TNF-α 5 or 15 minutes
Description: (§2) To examine the effect of the c-raf antisense oligonucleotide (ISIS 12854, SEQ ID NO. 2) on ERK, JNK, and p38 MAPK activities stimulated by TNF-α, in vitro kinase assays were performed on extracts derived from cells treated with ISIS 12854 (SEQ ID NO. 2). Cells were treated with oligonucleotides and induced with cytokines. At the indicated time, cells were lysed on ice and debris was removed by centrifugation. Protein concentration was measured by Bradford assay. Lysate containing equal amounts of protein were incubated with primary antibody-agarose conjugates (ERK and p38 assay; Santa Cruz Biotechnology, Santa Cruz, Calif.), or with JNK1-specific or JNK2-specific antibodies (JNK assay; Upstate Biotechnology, Lake Placid, N.Y.), overnight at 4° C.
(§3) For isoform-specific JNK assays, anti-rabbit IgG conjugated with agarose beads was added to cell extracts following JNK antibody treatment and wash steps and incubated for 2 hours at 4° C. […]
(§4) Cells were treated with the c-raf antisense compound, ISIS 12854 (SEQ ID NO. 2), allowed to recover for 48 hours, at which time TNF-α was added for 5 or 15 minutes prior to cell lysis and initiation of the kinase assays. […] Suitable substrates and ATP were added to the immunoprecipitated kinase complexes and the reaction mixes were analyzed on SDS-PAGE. […]

[5] = tested on: JNK; experiment: TNF-α-stimulated JNK activity, in vitro kinase assay on extracts of treated cells; conditions: 48 hours recovery, TNF-α 5 or 15 minutes
Description: as §2, §3, §4

Substance	% mRNA Expression (Ha-ras) ([1]; 1 nM) [%]	% mRNA Expression (Ha-ras) ([1]; 5 nM) [%]	% mRNA Expression (Ha-ras) ([1]; 25 nM) [%]	% mRNA Inhibition (Ha-ras) ([1]; 25 nM) [%]	% mRNA Expression (Ha-ras) ([1]; 50 nM) [%]	% mRNA Expression (Ha-ras) ([1]; 100 nM) [%]	effect on Ki-ras protein levels [2]	Ha-ras protein expression [3]	Activation of p38 MAPK [4]	JNK activity [5]	% mRNA Inhibition (Ha-ras) ([1]; 1 nM) [%]	% mRNA Inhibition (Ha-ras) ([1]; 5 nM) [%]	% mRNA Inhibition (Ha-ras) ([1]; 50 nM) [%]	% mRNA Inhibition (Ha-ras) ([1]; 100 nM) [%]	persistence of reduction of Ha-ras protein ([3]; following initial treatment)
ToCoAsGsTsAsAsTsAsGsCsCsCoCoAoCoAoToGoG [ISIS 17552, reference compound]	103	115	96	4	109	105	No effect	no effect	–	–	–	–	–	–	–
ToCoCoCoGoCsCsTsGsTsGsAsCsAsToGoCoAoToT [ISIS 12854]	–	–	–	–	–	–	–	–	not affected	inhibited	–	–	–	–	–
ToCoCsGsTsCsAsTsCsGsCsTsCoCoToCoAoGoGoG [ISIS 15168]	61	44	19	81	10	9	No effect	dose-dependent reduction	–	–	39	56	90	91	up to 72 hours
